Measurements from patent US20080009540A1, “Amorphous Atorvastatin Calcium” (priority 2004, published 2008).
Counter-ions that a name gives are not always drawn.

What was measured:
Format in all cases: physicochemical
[1] = Storage stability of commercial-sized batch of amorphous atorvastatin calcium, Example 8 packaging
Source text: A commercial-sized batch of amorphous atorvastatin calcium was packaged as follows:
a) amorphous atorvastatin calcium having a 6 percent w/w water content was initially placed into a clear polyethylene bag, air was removed, and the clear polyethylene bag was tied;
b) the tied clear polyethylene bag was placed into a black polyethylene bag along with a silica gel pouch and a package of oxygen absorbent, and then the black polyethylene bag was purged with nitrogen and sealed; and
c) the sealed black polyethylene bag was placed in a triple laminated bag along with a silica gel pouch, then the laminated bag was purged with nitrogen and sealed.

[2] = Storage stability of amorphous atorvastatin calcium, Example 7 packaging (2 percent w/w moisture; nitrogen, silica gel, oxygen absorbent)
Source text: The following packaging procedure was followed: 1) amorphous atorvastatin calcium having a 2 percent w/w moisture content was placed in a white polyethylene bag, the bag was purged with nitrogen, and then the bag was tied; 2) the tied white polyethylene bag was placed into a black polyethylene bag, along with a silica gel pouch and a bag of oxygen absorbent, then the black bag was purged with nitrogen and sealed; 3) the sealed black polyethylene bag was placed into a triple laminated bag along with a silica gel pouch, and then the laminated bag was purged with nitrogen and sealed; and 4) the sealed laminated bag was stored in a HDPE drum.

[3] = Storage stability of amorphous atorvastatin calcium, Example 6 packaging (6 percent w/w water; nitrogen, silica gel)
Source text: The following packaging procedure was followed: 1) amorphous atorvastatin calcium having a 6 percent w/w water content was initially packed in a polyethylene bag, which was then tied; 2) the tied polyethylene bag was placed in a black polyethylene bag with a silica gel pouch under a nitrogen atmosphere and then sealed; 3) the sealed black polyethylene bag was placed in a triple laminated bag along with a silica gel pouch, was purged with nitrogen, and sealed; and 4) the sealed laminated bag was stored in a HDPE drum.
table, where water was determined by the Karl Fischer method, and total organic impurities are expressed as area-percent, as determined by high performance liquid chromatography.

[4] = 25° C. and 60% relative humidity, 1 Month
[5] = 25° C. and 60% relative humidity, 2 Month
[6] = 25° C. and 60% relative humidity, 3 Month
[7] = 25° C. and 60% relative humidity, Initial
[8] = 40° C. and 75% relative humidity, 1 Month
[9] = 40° C. and 75% relative humidity, 2 Month
[10] = 40° C. and 75% relative humidity, 3 Month
[11] = 40° C. and 75% relative humidity, 15 Days
[12] = 40° C. and 75% relative humidity, 45 Days
[13] = 40° C. and 75% relative humidity, Initial
[14] = 25° C. and 60% relative humidity, 2 Months
[15] = 40° C. and 75% relative humidity, 2 Months
[16] = all three storage conditions, up to 2 Months
[17] = 25° C. and 60% relative humidity, 45 Days

Structure (SMILES): CC(C)c1c(C(=O)Nc2ccccc2)c(-c2ccccc2)c(-c2ccc(F)cc2)n1CC[C@@H](O)C[C@@H](O)CC(=O)O (relative stereo) [amorphous atorvastatin calcium, [R-(R*,R*)]-2-(4-fluorophenyl)-β,δ-dihydroxy-5-(1-methylethyl)-3-phenyl-4-[(phenylamino)carbonyl]-1H-pyrrole-1-heptanoic acid, calcium salt (2:1)]
- Total Impurities ([1]; 2 to 8° C., 1 Month): 0.37 area-percent
- Wt. Percent H2O ([1]; 2 to 8° C., 1 Month): 5.4 Wt. Percent
- Total Impurities ([1]; 2 to 8° C., 2 Month): 0.36 area-percent
- Wt. Percent H2O ([1]; 2 to 8° C., 2 Month): 5.3 Wt. Percent
- Total Impurities ([1]; 2 to 8° C., 3 Month): 0.34 area-percent
- Wt. Percent H2O ([1]; 2 to 8° C., 3 Month): 5.4 Wt. Percent
- Total Impurities ([1]; 2 to 8° C., Initial): 0.35 area-percent
- Wt. Percent H2O ([1]; 2 to 8° C., Initial): 5.4 Wt. Percent
- Total Impurities [1, 4]: 0.41 area-percent
- Wt. Percent H2O [1, 4]: 4.6 Wt. Percent
- Total Impurities [1, 5]: 0.42 area-percent
- Wt. Percent H2O [1, 5]: 4.8 Wt. Percent
- Total Impurities [1, 6]: 0.40 area-percent
- Wt. Percent H2O [1, 6]: 4.9 Wt. Percent
- Total Impurities [1, 7]: 0.35 area-percent
- Wt. Percent H2O [1, 7]: 5.4 Wt. Percent
- Total Impurities [1, 8]: 0.45 area-percent
- Wt. Percent H2O [1, 8]: 4.3 Wt. Percent
- Total Impurities [1, 9]: 0.47 area-percent
- Wt. Percent H2O [1, 9]: 4.5 Wt. Percent
- Total Impurities [1, 10]: 0.48 area-percent
- Wt. Percent H2O [1, 10]: 5.0 Wt. Percent
- Total Impurities [1, 11]: 0.39 area-percent
- Wt. Percent H2O [1, 11]: 4.8 Wt. Percent
- Total Impurities [1, 12]: 0.45 area-percent
- Wt. Percent H2O [1, 12]: 4.3 Wt. Percent
- Total Impurities [1, 13]: 0.35 area-percent
- Wt. Percent H2O [1, 13]: 5.4 Wt. Percent
- Change during the storage periods ([1]; all three storage conditions, up to 3 Month): did not change appreciably
- Total Impurities ([2]; 2 to 8° C., 1 Month): 0.27 area-percent
- Wt. Percent H2O ([2]; 2 to 8° C., 1 Month): 2.3 Wt. Percent
- Total Impurities ([2]; 2 to 8° C., 2 Months): 0.30 area-percent
- Wt. Percent H2O ([2]; 2 to 8° C., 2 Months): 2.6 Wt. Percent
- Total Impurities ([2]; 2 to 8° C., Initial): 0.29 area-percent
- Wt. Percent H2O ([2]; 2 to 8° C., Initial): 2.0 Wt. Percent
- Total Impurities [2, 4]: 0.34 area-percent
- Wt. Percent H2O [2, 4]: 2.4 Wt. Percent
- Total Impurities [2, 14]: 0.38 area-percent
- Wt. Percent H2O [2, 14]: 2.9 Wt. Percent
- Total Impurities [2, 7]: 0.29 area-percent
- Wt. Percent H2O [2, 7]: 2.0 Wt. Percent
- Total Impurities [2, 8]: 0.41 area-percent
- Wt. Percent H2O [2, 8]: 3.4 Wt. Percent
- Total Impurities [2, 15]: 0.40 area-percent
- Wt. Percent H2O [2, 15]: 3.2 Wt. Percent
- Total Impurities [2, 11]: 0.34 area-percent
- Wt. Percent H2O [2, 11]: 3.1 Wt. Percent
- Total Impurities [2, 12]: 0.34 area-percent
- Wt. Percent H2O [2, 12]: 3.2 Wt. Percent
- Total Impurities [2, 13]: 0.29 area-percent
- Wt. Percent H2O [2, 13]: 2.0 Wt. Percent
- Change during the storage periods [2, 16]: did not change appreciably
- Total Impurities ([3]; 2 to 8° C., 2 Months): 0.47 area-percent
- Wt. Percent H2O ([3]; 2 to 8° C., 2 Months): 4.80 Wt. Percent
- Total Impurities ([3]; 2 to 8° C., 45 Days): 0.46 area-percent
- Wt. Percent H2O ([3]; 2 to 8° C., 45 Days): 4.50 Wt. Percent
- Total Impurities ([3]; 2 to 8° C., Initial): 0.37 area-percent
- Wt. Percent H2O ([3]; 2 to 8° C., Initial): 6.00 Wt. Percent
- Total Impurities [3, 14]: 0.49 area-percent
- Wt. Percent H2O [3, 14]: 3.97 Wt. Percent
- Total Impurities [3, 17]: 0.51 area-percent
- Wt. Percent H2O [3, 17]: 3.70 Wt. Percent
- Total Impurities [3, 7]: 0.37 area-percent
- Wt. Percent H2O [3, 7]: 6.00 Wt. Percent
- Total Impurities [3, 15]: 0.50 area-percent
- Wt. Percent H2O [3, 15]: 3.47 Wt. Percent
- Total Impurities [3, 12]: 0.61 area-percent
- Wt. Percent H2O [3, 12]: 3.49 Wt. Percent
- Total Impurities ([3]; 40° C. and 75% relative humidity, Initial, HPLC): 0.37 area-percent
- Wt. Percent H2O ([3]; 40° C. and 75% relative humidity, Initial, Karl Fischer): 6.00 Wt. Percent
- Change during the storage periods [3, 16]: did not change appreciably
